Values of other authors, collected in the PKSmart pharmacokinetics tables (Seal et al. 2025).

Columns and labels:
[1] = Lombardo et al. 2013, J Clin Pharmacol 53:178, doi 10.1177/0091270012440282; settings: for Vd / clearance: in vivo, iv; for fraction unbound: plasma
[2] = Lombardo, Berellini, Obach 2018, Drug Metab Dispos 46:1466, doi 10.1124/dmd.118.082966; settings: human; for MRT / Vd / clearance / half-life: in vivo, iv; for fraction unbound: plasma

## O=C1CN=C(c2ccccc2Cl)c2cc([N+](=O)[O-])ccc2N1
[1]; dog
  Vd: 2.49 L/kg
  clearance: 24 mL/min/kg
  fraction unbound: 0.18
[1]; monkey
  Vd: 6.8 L/kg
  clearance: 14.3 mL/min/kg
  fraction unbound: 0.121
[1]; rat
  Vd: 3.1 L/kg
  clearance: 70.5 mL/min/kg
[2]
  MRT: 55 h
  Vd: 2.9 L/kg
  clearance: 0.88 mL/min/kg
  half-life: 38 h

## C[C@@H](O)C1C(=O)N2C(C(=O)[O-])=C(SC3Cn4cnc[n+]4C3)[C@H](C)[C@H]12 (stereo not given in full)
[1]; dog
  Vd: 0.21 L/kg
  clearance: 4.7 mL/min/kg
  fraction unbound: 0.94
[1]; monkey
  Vd: 0.25 L/kg
  clearance: 5.5 mL/min/kg
[1]; rat
  Vd: 0.19 L/kg
  clearance: 13 mL/min/kg
  fraction unbound: 0.96
[2]
  MRT: 1.3 h
  Vd: 0.2 L/kg
  clearance: 2.5 mL/min/kg
  half-life: 1.1 h
  fraction unbound: 0.92

## CO[C@]12CC[C@@]3(C[C@@H]1[C@](C)(O)C(C)(C)C)[C@H]1Cc4ccc(O)c5c4[C@@]3(CCN1CC1CC1)[C@H]2O5
[1]; rat
  Vd: 8.37 L/kg
  clearance: 0.05 mL/min/kg
[2]
  half-life: 3.2 h

## CCC(CC)O[C@@H]1C=C(C(=O)O)C[C@H](N)[C@H]1NC(C)=O
[1]; dog
  Vd: 0.56 L/kg
  clearance: 5.3 mL/min/kg
  fraction unbound: 0.304
[1]; rat
  Vd: 1.3 L/kg
  clearance: 25 mL/min/kg
[2]
  MRT: 1.3 h
  Vd: 0.37 L/kg
  clearance: 4.8 mL/min/kg
  half-life: 1.8 h

## CCC#CC[C@H](C)[C@H](O)C#C[C@@H]1[C@H]2C/C(=C/COCC(=O)O)C[C@H]2C[C@H]1O
[1]; monkey
  Vd: 1.2 L/kg
  clearance: 14.3 mL/min/kg
[1]; rat
  Vd: 1 L/kg
  clearance: 49 mL/min/kg
[2]
  MRT: 0.35 h
  Vd: 0.08 L/kg
  clearance: 3.8 mL/min/kg
  half-life: 1.1 h

## C=CC1=C(C(=O)O)N2C(=O)C(=NC(=O)C(NOCC(=O)O)c3csc(N)n3)[C@H]2SC1 (stereo not given in full)
[1]; dog
  Vd: 0.24 L/kg
  clearance: 0.4 mL/min/kg
  fraction unbound: 0.07
[1]; rat
  Vd: 0.4 L/kg
  clearance: 6 mL/min/kg
  fraction unbound: 0.4
[2]
  Vd: 0.24 L/kg
  clearance: 1 mL/min/kg
  half-life: 3.2 h

## CCCCCN(CCCOC)C(=O)C(CCC(=O)O)NC(=O)c1ccc(Cl)c(Cl)c1 (stereo not given)
[1]; dog
  Vd: 0.34 L/kg
  clearance: 30.7 mL/min/kg
  fraction unbound: 0.021
[1]; rat
  Vd: 0.98 L/kg
  clearance: 6.01 mL/min/kg
  fraction unbound: 0.0093
[2]
  MRT: 2.4 h
  Vd: 0.21 L/kg
  clearance: 2.35 mL/min/kg
  half-life: 3.2 h

## Cc1ncc2n1-c1ccc(Cl)cc1C(c1ccccc1F)=NC2
[1]; dog
  Vd: 1.1 L/kg
  clearance: 35.2 mL/min/kg
  fraction unbound: 0.0223
[1]; monkey
  Vd: 3 L/kg
  clearance: 22.3 mL/min/kg
  fraction unbound: 0.146
[1]; rat
  Vd: 2.6 L/kg
  clearance: 90 mL/min/kg
  fraction unbound: 0.04
[2]
  MRT: 3.5 h
  Vd: 1.1 L/kg
  clearance: 5.3 mL/min/kg
  half-life: 3.1 h

## COc1ccc(C(CN(C)C)C2(O)CCCCC2)cc1 (stereo not given)
[1]; dog
  Vd: 3.3 L/kg
  clearance: 13.5 mL/min/kg
  fraction unbound: 0.593
[1]; monkey
  Vd: 3.5 L/kg
  clearance: 41 mL/min/kg
  fraction unbound: 0.708
[1]; rat
  Vd: 6.6 L/kg
  clearance: 64.5 mL/min/kg
[2]
  MRT: 5.2 h
  Vd: 4.4 L/kg
  clearance: 14 mL/min/kg
  half-life: 5 h

## CCN(C(C)=O)c1cccc(-c2ccnc3c(C#N)cnn23)c1
[1]; rat
  Vd: 1.72 L/kg
  clearance: 20.7 mL/min/kg
[2]
  MRT: 1.4 h
  Vd: 1.3 L/kg
  fraction unbound: 0.4

## c1ccc2c(c1)OCC(C1=NCCN1)O2 (stereo not given)
[1]; rat
  Vd: 3.1 L/kg
  clearance: 71.2 mL/min/kg
[2]
  MRT: 5.5 h
  Vd: 3.3 L/kg
  clearance: 10 mL/min/kg
  half-life: 4.2 h

## CN1CCN(c2c(F)cc3c(=O)c(C(=O)O)cn(CCF)c3c2F)CC1
[1]; dog
  Vd: 1.3 L/kg
  clearance: 1.6 mL/min/kg
  fraction unbound: 0.51
[1]; monkey
  Vd: 1.2 L/kg
  clearance: 4 mL/min/kg
  fraction unbound: 0.607
[1]; rat
  Vd: 1.3 L/kg
  clearance: 5.8 mL/min/kg
  fraction unbound: 0.49
[2]
  MRT: 11 h
  Vd: 1.6 L/kg
  clearance: 2.4 mL/min/kg
  half-life: 8.6 h

## CC(C)C[C@H](NC(=O)C(NC(=O)c1cccc(-c2ccccc2)n1)[C@@H](C)O)B(O)O (stereo not given in full)
[1]; rat
  Vd: 18.1 L/kg
  clearance: 3.17 mL/min/kg
[2]
  MRT: 50.6 h
  Vd: 0.87 L/kg
  clearance: 0.29 mL/min/kg
  half-life: 42.1 h

## CC(c1ncncc1F)[C@](O)(Cn1cncn1)c1ccc(F)cc1F (stereo not given in full)
[1]; dog
  Vd: 0.88 L/kg
  fraction unbound: 0.49
[1]; rat
  Vd: 1.78 L/kg
  fraction unbound: 0.44
[2]
  MRT: 4.4 h
  Vd: 2.2 L/kg
  half-life: 5.6 h
  fraction unbound: 0.42

## O=C(O)CC(NC(=O)CP(=O)(O)O)C(=O)O (stereo not given)
[1]; dog
  Vd: 0.29 L/kg
  clearance: 4.1 mL/min/kg
[1]; monkey
  Vd: 0.2 L/kg
  clearance: 2.3 mL/min/kg
[1]; rat
  Vd: 1.1 L/kg
  clearance: 17.4 mL/min/kg
[2]
  MRT: 4.51 h
  Vd: 0.33 L/kg
  clearance: 1.22 mL/min/kg
  half-life: 4.78 h

## O=[N+]([O-])O[C@H]1CO[C@H]2[C@@H]1OC[C@H]2O[N+](=O)[O-]
[1]; dog
  Vd: 3 L/kg
  clearance: 180 mL/min/kg
[1]; monkey
  Vd: 1.7 L/kg
  clearance: 58.8 mL/min/kg
[1]; rat
  Vd: 2.6 L/kg
  clearance: 122 mL/min/kg
[2]
  MRT: 1 h
  Vd: 1.9 L/kg
  clearance: 31 mL/min/kg
  half-life: 1.7 h
  fraction unbound: 0.72

## NCCC(O)(P(=O)(O)O)P(=O)(O)O
[1]; rat
  Vd: 0.18 L/kg
  clearance: 15.2 mL/min/kg
[2]
  MRT: 12 h
  Vd: 1.8 L/kg
  clearance: 2.5 mL/min/kg
  half-life: 32 h
  fraction unbound: 0.7

## CC1COc2c(N3CCN(C)CC3)c(F)cc3c(=O)c(C(=O)O)cn1c23 (stereo not given)
[1]; dog
  Vd: 1.3 L/kg
  clearance: 23.2 mL/min/kg
  fraction unbound: 0.51
[1]; monkey
  fraction unbound: 0.71
[1]; rat
  Vd: 1.42 L/kg
  clearance: 13.2 mL/min/kg
[2]
  MRT: 11 h
  Vd: 1.6 L/kg
  clearance: 2.5 mL/min/kg
  half-life: 8.9 h
